Entries after “also recorded” stand apart in the source; their conditions may differ. Where a name gives a salt, the structure may show the parent alone.
Legend:
marine bacteria = experiment: Growth assay (absorbance, 96-well plates); assay type: cell-based, marine bacteria isolated from Singapore fouling communities; details: 25 μg ml^−1; for Number of strains with strongly inhibited growth: 25 strains of Table 5
Description: The dried powder was re-suspended in sterile deionized water and made up to 2 mg ml^−1.
The same bacterial strains were used and cultured the same way as in disc inhibition assay. Cells were harvested by centrifugation at 300 rpm for 10 min. The supernatant was discarded and the pellet re-suspended using sterile seawater collected from St. John's island, Singapore. The concentration of bacterial cells was adjusted to an absorbance of approximately 0.6 using a spectrophotometer (Beckman DU530) at wavelength 600 nm.
The growth with response to the pharmaceuticals was assumed to be proportional to the absorbance of the bacteria. […] To each well 25 μl of each drug solution (concentration adjusted to 100 μg ml^−1) were pipetted into three wells followed by 10 μl of broth and 65 μl of sterile seawater. For wells that were to contain bacteria, 60 μl of sterile seawater was used instead. All wells used for growth studies were prepared in triplicate and inoculated with 5 μl of the bacterial suspension. Blanks consisting of the respective volumes of pharmaceutical with Marine Broth and distilled water, if needed, were prepared in triplicate and inoculated with 5 μl of sterile seawater.
The absorbance (A600) of each well was read in a plate reader (Sunrise Tecan Model F039300) immediately (time=0 hours) and after 1, 2, 3, 4, 20, 23 and 28 hours. Plates were incubated overnight inside a moistened airtight container.
Any changes in absorbance were plotted and compared with control. The mean absorbance (mean bac) from the bacteria was obtained by deducting the absorbance values of blank wells (containing seawater and broth only) from that for the control wells (containing bacteria in seawater and broth only). The absorbance arising from the drugs was obtained from the 0 hr reading for wells containing drugs and bacteria, minus the wells with drugs alone (mean “drug”). The growth assays were repeated three times.

[1] = tested on: biofilm bacteria (strains 4, 9, 14, 20, 27, 28); experiment: Effect of pharmaceuticals on adhesion of bacteria to plastic / biofilm formation on NTC and TC plates; assay type: cell-based, marine bacteria isolated from Singapore fouling communities; details: for Effect on formation of bacterial biofilms on NTC and TC plates: 25 ug ml−1, NTC = untreated polystyrene, TC = tissue-culture treated, strains 4, 9, 14, 20, 27, 28, hydrochloride; for Prevention of formation of biofilm: crude rank, best (1) to worst (8)
Description: Commercial forms of pharmaceuticals were used as previously described. […] These samples were sonicated for at least 1 min and these fine suspensions were used as initial stock solutions.
For studies of bacterial adhesion, the pharmaceuticals were first sterilized by soaking in absolute alcohol (Merck) for half an hour. Ethanol was removed by air-drying with air passed through 0.25 μm pore size syringe filter (Sartorius, Germany). Stock solutions were concentrations of 100 μg ml−1 in SDI.
The effect of pharmaceuticals on bacterial adhesion was analyzed using a modified microplate method adapted from Shea and Williamson (1990). This method employs a combination of staining attached bacteria with crystal violet, releasing the stain with sodium desoxycholate, and measuring the resulting absorbance of the crystal violet.
Detailed results for six selected strains are presented here: strains 4, 9, 14, 20, 27, 28. The bacterial strains were grown in Marine Broth (Pronadisa, Spain) overnight, in the dark, at 28° C. on a rotary shaker (150 rpm) in 5 ml centrifuge tubes (Falcon). Cells were harvested by centrifugation (1500×g, 10 min) and resuspended in sterile seawater (SSW). SSW was prepared by filtering seawater through a 0.2 μm pore size filter (Sartorius) followed by autoclaving. The cells were centrifuged and resuspended once more in SSW. The concentration of resuspended cells was adjusted to A600=1.0 using a spectrophotometer (Beckman DU530, USA).
Flat bottom 96 well polystyrene (hydrophobic, Falcon 351172) (=NTC) and tissue-culture treated polystyrene (hydrophilic, Falcon 353072) (=TC) microplates were used in the analyses. Each test was performed in triplicate. Two sets of experiments were conducted. […] For the control and blank wells, 25 ul of SDI were added. For wells containing pharmaceuticals, 25 ul of the respective pharmaceutical at a concentration of 100 ug ml−1 were added. This was immediately followed by the addition of 75 ul of bacterial suspension. To blanks were added 75 ul of SSW.
The bacterial cells in suspension were allowed to attach for 2 h at 28° C. Unattached cells were removed by aspiration using a plate washer (Tecan, Austria) and wells were rinsed three times with 200 ul of SSW each time. The attached cells were stained with 200 ul of crystal violet solution (0.1% w/v in deionized water) in each well for 5 min. After removing the stain using the plate washer, the wells were rinsed twice with 300 ul of SDI each time. Sodium desoxycholate (200 ul) solution (2% w/v in deionized water) was added to each well to extract the crystal violet from the attached stained cells for 10 min. The absorbance of the crystal violet was read at 590 nm using a microplate reader (Sunrise, Tecan, Austria).
Results of the adhesion assay were obtained by the difference in absorbance readings between wells containing bacterial cells and the mean of absorbance of those containing the SSW only. The effect of the pharmaceuticals on bacterial adhesion was determined by the examining the differences in absorbance between the wells containing the pharmaceuticals+bacteria and the bacteria. The significance was compared using T-test.

Structure (SMILES)	Number of strains with strongly inhibited growth (marine bacteria)	Inhibition of bacterial growth (marine bacteria; strain 1 (Rhodovulum))	Inhibition of bacterial growth (marine bacteria; strain 2 (Erythrobacter))	Inhibition of bacterial growth (marine bacteria; strain 3 (Erythrobacter))	Inhibition of bacterial growth (marine bacteria; strain 4 (Bacillus))	Inhibition of bacterial growth (marine bacteria; strain 6 (Vibrio))	Inhibition of bacterial growth (marine bacteria; strain 7 (Vibrio))	Inhibition of bacterial growth (marine bacteria; strain 8 (Bacillus))	Inhibition of bacterial growth (marine bacteria; strain 9 (Bacillus))	Inhibition of bacterial growth (marine bacteria; strain 10 (Halobacillus))	Inhibition of bacterial growth (marine bacteria; strain 11 (Pseudomonas))	Inhibition of bacterial growth (marine bacteria; strain 12 (Gordonia))	Inhibition of bacterial growth (marine bacteria; strain 13 (Bacillus))	Inhibition of bacterial growth (marine bacteria; strain 14 (Vibrio))	Inhibition of bacterial growth (marine bacteria; strain 16 (Pseudoalteromonas))	Inhibition of bacterial growth (marine bacteria; strain 17 (Gordonia))	Inhibition of bacterial growth (marine bacteria; strain 18 (Microbacterium))	Inhibition of bacterial growth (marine bacteria; strain 19 (Erythrobacter))	Inhibition of bacterial growth (marine bacteria; strain 20)	Inhibition of bacterial growth (marine bacteria; strain 21)	further results
CN1CCN(CCCN2c3ccccc3Sc3ccc(C(F)(F)F)cc32)CC1 [TFZ, Trifluoperazine hydrochloride]	14	0	0	+++ (+++ denotes little or no growth, p < 0.001)	+++ (+++ denotes little or no growth, p < 0.001)	+ (+ denotes growth present but inhibited, p < 0.01)	+ (+ denotes growth present but inhibited, p < 0.01)	+ (+ denotes growth present but inhibited, p < 0.01)	+++ (+++ denotes little or no growth, p < 0.001)	+++ (+++ denotes little or no growth, p < 0.001)	+ (+ denotes growth present but inhibited, p < 0.01)	+++ (+++ denotes little or no growth, p < 0.001)	+++ (+++ denotes little or no growth, p < 0.001)	0	0	+++ (+++ denotes little or no growth, p < 0.001)	+++ (+++ denotes little or no growth, p < 0.001)	+++ (+++ denotes little or no growth, p < 0.001)	+ (+ denotes growth present but inhibited, p < 0.01)	0	Inhibition of bacterial growth (marine bacteria; strain 24): + (+ denotes growth present but inhibited, p < 0.01); Inhibition of bacterial growth (marine bacteria; strain 26): 0; Inhibition of bacterial growth (marine bacteria; strain 27): +++ (+++ denotes little or no growth, p < 0.001); Inhibition of bacterial growth (marine bacteria; strain 28): +++ (+++ denotes little or no growth, p < 0.001); Inhibition of bacterial growth (marine bacteria; strain 29): +++ (+++ denotes little or no growth, p < 0.001); Inhibition of bacterial growth (marine bacteria; strain 30): +++ (+++ denotes little or no growth, p < 0.001); Effect on formation of bacterial biofilms on NTC and TC plates [1]: reduced biofilm formation on NTC plates; also recorded: active against strain 4, 14, 27 on NTC but no reduction of biofilms was observed on the TC plates; Prevention of formation of biofilm [1]: 4
CNCCC(Oc1ccc(C(F)(F)F)cc1)c1ccccc1 (centres unmarked) [PZC, fluoxetine hydrochloride]	3	0	+ (+ denotes growth present but inhibited, p < 0.01)	+ (+ denotes growth present but inhibited, p < 0.01)	0	0	+ (+ denotes growth present but inhibited, p < 0.01)	+ (+ denotes growth present but inhibited, p < 0.01)	+ (+ denotes growth present but inhibited, p < 0.01)	+++ (+++ denotes little or no growth, p < 0.001)	+ (+ denotes growth present but inhibited, p < 0.01)	+ (+ denotes growth present but inhibited, p < 0.01)	+ (+ denotes growth present but inhibited, p < 0.01)	0	0	+++ (+++ denotes little or no growth, p < 0.001)	+ (+ denotes growth present but inhibited, p < 0.01)	+ (+ denotes growth present but inhibited, p < 0.01)	+ (+ denotes growth present but inhibited, p < 0.01)	0	Inhibition of bacterial growth (marine bacteria; strain 24): 0; Inhibition of bacterial growth (marine bacteria; strain 26): 0; Inhibition of bacterial growth (marine bacteria; strain 27): + (+ denotes growth present but inhibited, p < 0.01); Inhibition of bacterial growth (marine bacteria; strain 28): 0; Inhibition of bacterial growth (marine bacteria; strain 29): + (+ denotes growth present but inhibited, p < 0.01); Inhibition of bacterial growth (marine bacteria; strain 30): +++ (+++ denotes little or no growth, p < 0.001); Effect on formation of bacterial biofilms on NTC and TC plates [1]: slight effect on biofilm formation in strain 4 on both TC and NTC plates; also recorded: slight effect on strain 4 (p<0.1); Prevention of formation of biofilm [1]: 5
